According to the supplement of paper PMC12137928:
Where a name gives a salt, the structure may show the parent alone.

Key:
HCT116 [1] = conditions: 72 h
Method in brief: (§1)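 HCT116 cells were seeded at 250 per well in 1536-well plates with 5 h allowed for attachment. CellTiter-Glo luminescence was normalized against vehicle (0%) and positive control (-100%) before pattern correction. The IC50 and maximal efficacy figures derive from four-parameter Hill fits.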

HCT116 [2] = assay: efficacy (maximum % inhibition of viability vs DMSO); higher = more cytotoxic; conditions: 72 h
Method in brief: as §1

SMILES | IC50 cell viability (HCT116 [1]; ICRF193 0 nM) [µM] | IC50 cell viability (HCT116 [1]; ICRF193 200 nM) [µM] | efficacy (HCT116 [2]; ICRF193 0 nM) [%] | efficacy (HCT116 [2]; ICRF193 200 nM) [%]
O=C(NC1CCN(CCCCC2(C(=O)NCC(F)(F)F)c3ccccc3-c3ccccc32)CC1)c1ccccc1-c1ccc(C(F)(F)F)cc1 [Lomitapide] | 16.4 | 20.6 | 117 | 115
C#C[C@]1(O)CC[C@H]2[C@@H]3CCC4=Cc5oncc5C[C@]4(C)[C@H]3CC[C@@]21C [Danazol] | > 45.8 | 20.6 | – | 47.9
OC[C@H]1O[C@H](O[C@]2(CCl)O[C@H](CCl)[C@@H](O)[C@@H]2O)[C@H](O)[C@@H](O)[C@H]1Cl [Sucralose] | > 45.8 | 6.51 | – | 44.6
CN(C)CC/C=C1\c2ccccc2CSc2ccccc21 [Dosulepin hydrochloride] | 20.6 | 29.1 | 67.8 | 69.1
C[C@@H](c1nc(-c2ccc(C#N)cc2)cs1)[C@](O)(Cn1cncn1)c1cc(F)ccc1F [Isavuconazole] | > 45.8 | 8.2 | – | 45.8
N[C@@H]1[C@H]2CN(c3nc4c(cc3F)c(=O)c(C(=O)O)cn4-c3ccc(F)cc3F)C[C@@H]12 [Trovafloxacin mesylate] | 29.1 | 20.6 | 52.4 | 65.3
COC(=O)C1=C(C)NC(COC(N)=O)=C(C(=O)OC(C)C)C1c1cccc(Cl)c1Cl (configuration not stated) [Lemildipine] | 23.1 | 25.9 | 76.8 | 76.7
CCCCCCCC(=O)N[C@H](CN1CCCC1)[C@H](O)c1ccc2c(c1)OCCO2 [Eliglustat (Tartrate)] | > 45.8 | 29.1 | – | 44.2
COc1c(C)c2c(c(O)c1C/C=C(\C)CCC(=O)O)C(=O)OC2 [Mycophenolic acid] | 1.83 | 2.59 | 70.7 | 92.4
COc1cc(Nc2c(C#N)cnc3cc(OCCCN4CCN(C)CC4)c(OC)cc23)c(Cl)cc1Cl [Bosutinib] | 29.1 | 18.3 | 106 | 132
O=C(O)c1c(Cl)c(Cl)c(Cl)c(Cl)c1-c1c2cc(I)c(=O)c(I)c-2oc2c(I)c(O)c(I)cc12 [Rose Bengal disodium] | 16.4 | 11.6 | 74.2 | 62.4
O=[N+]([O-])c1ccc(Oc2ccc(N=C=S)cc2)cc1 [Nitroscanate] | 29.1 | 29.1 | 82.7 | 85.5
O=C(CCCN1CCN(c2ccc(F)cc2)CC1)NC1c2ccccc2CSc2ccccc21 (configuration not stated) [Monatepil] | 23.1 | 23.1 | 123 | 93.7
CN1CCN(CCCN2c3ccccc3Sc3ccc(S(=O)(=O)N(C)C)cc32)CC1 [Thioproperazine dimethanesulfonate] | > 45.8 | 20.6 | – | 46.2
Cc1cc(C2CCCCC2)n(O)c(=O)c1 [Ciclopirox] | 11.6 | 13 | 107 | 98.9
N=C(NCCCCCCNC(=N)NC(=N)Nc1ccc(Cl)cc1)NC(=N)Nc1ccc(Cl)cc1 [Chlorhexidine] | 18.3 | 18.3 | 104 | 103
CCOC1O[C@H]([C@@H](COCc2ccccc2)OCc2ccccc2)[C@H](OCc2ccccc2)[C@H]1O (some centres not stated) [Tribenoside] | 29.1 | 18.3 | 106 | 92.1
COC(=O)C[C@](O)(CCCC(C)(C)O)C(=O)O[C@@H]1C(OC)=C[C@]23CCCN2CCc2cc4c(cc2[C@H]13)OCO4 [Omacetaxine mepesuccinate] | 0.0651 | 0.0461 | 65.6 | 66.3
NC(=O)C1(N2CCCCC2)CCN(CCCN2c3ccccc3CCc3ccc(Cl)cc32)CC1 [Clocapramine] | 23.1 | 18.3 | 117 | 105
CNC(=O)c1cc(Oc2ccc(NC(=O)Nc3ccc(Cl)c(C(F)(F)F)c3)c(F)c2)ccn1 [Regorafenib] | 8.2 | 5.8 | 67.3 | 80.7

SMILES | IC50 cell viability (HCT116 [1]; ICRF193 0 nM) [µM] | IC50 cell viability (HCT116 [1]; ICRF193 200 nM) [µM] | efficacy (HCT116 [2]; ICRF193 0 nM) [%] | efficacy (HCT116 [2]; ICRF193 200 nM) [%]
N#C/C(=C1/SC[C@@H](c2ccc(Cl)cc2Cl)S1)n1ccnc1 [Luliconazole] | > 45.8 | 20.6 | – | 44.9
CC[C@H]1OC(=O)C[C@@H](OC(C)=O)[C@H](C)[C@@H](O[C@@H]2O[C@H](C)[C@@H](O[C@H]3C[C@@](C)(O)[C@@H](OC(=O)CC(C)C)[C@H](C)O3)[C@H](N(C)C)[C@H]2O)[C@@H](CC=O)C[C@@H](C)C(=O)/C=C/C(C)=C/[C@@H]1CO[C@@H]1O[C@H](C)[C@@H](O)[C@@H](OC)[C@H]1OC [Tylvalosin] | > 45.8 | 18.3 | – | 53.7
CC(C)C[C@H](NC(=O)[C@H](Cc1ccccc1)NC(=O)c1cnccn1)B(O)O [Bortezomib] | 0.00517 | 0.00517 | 93.7 | 97.3
CN[C@H]1CC[C@@H](c2ccc(Cl)c(Cl)c2)c2ccccc21 [Sertraline hydrochloride] | 18.3 | 18.3 | 95.4 | 97.5
Clc1ccc(CO/N=C(\Cn2ccnc2)c2ccc(Cl)cc2Cl)c(Cl)c1 [Oxiconazole nitrate] | 29.1 | 20.6 | 104 | 101
C=C(C)[C@@H]1CCC(C)=C[C@H]1c1c(O)cc(CCCCC)cc1O [Cannabidiol] | 20.6 | 23.1 | 52.9 | 49.4
CC(C)c1nc(CN(C)C(=O)N[C@@H](CCN2CCOCC2)C(=O)N[C@H](CC[C@H](Cc2ccccc2)NC(=O)OCc2cncs2)Cc2ccccc2)cs1 [Cobicistat] | 14.6 | > 45.8 | 40.1 | –
CSc1ccc2c(c1)N(CCC1CCCCN1C)c1ccccc1S2 (configuration not stated) [Thioridazine] | 23.1 | 18.3 | 115 | 95
CC(C)C[C@H](NC(=O)CNC(=O)c1cc(Cl)ccc1Cl)B1OC(=O)C(CC(=O)O)(CC(=O)O)O1 [MLN9708] | 0.13 | 0.103 | 96.2 | 94.4
NC(=O)c1cccc2cn(-c3ccc([C@@H]4CCCNC4)cc3)nc12 [MK-4827] | 29.1 | 18.3 | 72.9 | 114
O=C(OC[C@H]1O[C@@H](OC(=O)c2cc(O)c(O)c(OC(=O)c3cc(O)c(O)c(O)c3)c2)[C@H](OC(=O)c2cc(O)c(O)c(OC(=O)c3cc(O)c(O)c(O)c3)c2)[C@@H](OC(=O)c2cc(O)c(O)c(OC(=O)c3cc(O)c(O)c(O)c3)c2)[C@@H]1OC(=O)c1cc(O)c(O)c(OC(=O)c2cc(O)c(O)c(O)c2)c1)c1cc(O)c(O)c(OC(=O)c2cc(O)c(O)c(O)c2)c1 [Tannic acid] | 18.3 | 18.3 | 108 | 102
CC(C)COCC(CN(Cc1ccccc1)c1ccccc1)N1CCCC1 (configuration not stated) [Bepridil] | 20.6 | 29.1 | 85.1 | 73.2
O=C1NC2CCCCN2C12CCN(CCCN1c3ccccc3CCc3ccc(Cl)cc31)CC2 (configuration not stated) [Mosapramine] | 20.6 | 23.1 | 125 | 129
CCc1nn(CCCN2CCN(c3cccc(Cl)c3)CC2)c(=O)n1CCOc1ccccc1 [Nefazodone hydrochloride] | 14.6 | 18.3 | 42.5 | 63.8
Oc1c(Cl)cc(Cl)c2cccnc12 [Chloroxine] | 29.1 | 29.1 | 103 | 112
COC(=O)[C@H]1[C@H]2C[C@@H]3c4[nH]c5cc(OC)ccc5c4CCN3C[C@H]2C[C@@H](OC(=O)c2cc(OC)c(OC)c(OC)c2)[C@@H]1OC [Reserpine] | > 45.8 | 16.4 | – | 42.6
CC1=CC(=C(c2ccc(N)cc2)c2ccc(N)cc2)C=CC1=N [C.I. Basic Violet 14] | 10.3 | 5.17 | 98.1 | 92.3
COc1cc(NS(C)(=O)=O)ccc1Nc1c2ccccc2nc2ccccc12 [Amsacrine] | 20.6 | 20.6 | 141 | 128
C=C1C[C@@H]2CC[C@@]34C[C@H]5O[C@H]6[C@@H](O3)[C@H]3O[C@H](CC[C@@H]3O[C@H]6[C@H]5O4)CC(=O)C[C@@H]3[C@@H](OC)[C@@H](C[C@H](O)CN)O[C@H]3C[C@H]3O[C@@H](CC[C@@H]1O2)C[C@@H](C)C3=C [Eribulin mesylate] | 0.0651 | 0.164 | 90.6 | 77.5
